Like-named read-outs stand apart in the source and are kept apart here. Starred links: 1 amine or outer side, 2 acyl side, 3 side chain; linkers in the order of their positions; H or OH if unused. Positions of bridges follow the written chain, without caps; N, C: chain ends. Non-standard residues stand in square brackets, D forms with d. Residues, ends and D or L forms follow the SMILES beside them. *: point of attachment. NMeF = CN[C@@H](Cc1ccccc1)C(=O)O; NMeGABA = CN(CCCC(=O)[*:2])[*:1]; NMeL = CN[C@@H](CC(C)C)C(=O)O; NMeA = CN[C@@H](C)C(=O)O; Piperidide = C1CCN(*)CC1; dNMeA = CN[C@H](C)C(=O)O; Sar = CNCC(=O)O; tBu = CC(C)(C)*
Experiments:
[1] = PAMPA (parallel artificial membrane permeability assay); format: in vitro ADME; conditions: PAMPA
In short: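 Artificial membrane was 10% (w/v) egg lecithin plus 0.5% (w/v) cholesterol in dodecane on a PVDF filter. A 10 mM DMSO stock was added at 0.5% (v/v) to donor buffer (50 mM MOPSO, pH 6.5, 5.0% glycocholic acid). After 18 h at 37 °C, LC/MS or LC/UV gave donor and acceptor levels for Pe.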

[2] = Metabolic stability in human hepatic microsome; format: in vitro ADME; conditions: microsomes
[3] = membrane permeation rate (Pe), 50 mM MOPSO buffer pH 6.5 with 5.0% glycocholic acid, 37° C., 18 hours, read-out: iPAMPA Pe
[4] = pH 7.4, human hepatic microsome, NADPH(+), read-out: CL NADPH(+)

| SMILES | Papp at 18 hours, 50 µM [1, 3] | microsomal CLint at 1 uM [2, 4] | Papp at 18 hours, 50 µM ([1]; pH 6.5) | microsomal CLint at 1 uM ([2]; human, pH 7.4, CL NADPH(+)) |
| --- | --- | --- | --- | --- |
| CC(C)C[C@H]1C(=O)N[C@H](C(=O)N2CCCCC2)CC(=O)N(C)[C@H](C)C(=O)N(C)[C@@H](Cc2ccccc2)C(=O)N(C)[C@@H](CC(C)C)C(=O)N[C@@H]([C@@H](C)O)C(=O)N(C)[C@@H](C)C(=O)N[C@@H](COC(C)(C)C)C(=O)N1C [DP-682] ([dNMeA][NMeF][NMeL]T[NMeA]S(tBu)[NMeL]D-Piperidide; lactam N-8) | 13 ×10⁻⁶ cm/s | 20 µL/min/mg | – | – |
| CC(C)C[C@H]1C(=O)N[C@H](C(=O)N2CCCCC2)CC(=O)N(C)[C@H](C)C(=O)N(C)[C@@H](Cc2ccccc2)C(=O)N(C)[C@@H](CC(C)C)C(=O)N[C@@H]([C@@H](C)O)C(=O)N(C)[C@@H](CC(C)C)C(=O)N[C@@H](COC(C)(C)C)C(=O)N1C [DP-683] ([dNMeA][NMeF][NMeL]T[NMeL]S(tBu)[NMeL]D-Piperidide; lactam N-8) | 32 ×10⁻⁶ cm/s | 53 µL/min/mg | – | – |
| CC(C)C[C@H]1C(=O)N[C@H](C(=O)N2CCCCC2)CC(=O)N[C@H](C)C(=O)N(C)[C@@H](Cc2ccccc2)C(=O)N(C)[C@@H](CC(C)C)C(=O)N[C@@H]([C@@H](C)O)C(=O)N(C)[C@@H](CC(C)C)C(=O)N[C@@H](COC(C)(C)C)C(=O)N1C [DP-684] ([dA][NMeF][NMeL]T[NMeL]S(tBu)[NMeL]D-Piperidide; lactam N-8) | 23 ×10⁻⁶ cm/s | 126 µL/min/mg | – | – |
| CC(C)C[C@H]1C(=O)N(C)[C@@H](CC(C)C)C(=O)N[C@H](C(=O)N2CCCCC2)CC(=O)N(C)CCCC(=O)N(C)[C@@H](Cc2ccccc2)C(=O)N[C@@H]([C@@H](C)O)C(=O)N(C)[C@@H](C)C(=O)N[C@@H](COC(C)(C)C)C(=O)N1C [DP-685] ([NMeGABA][NMeF]T[NMeA]S(tBu)[NMeL][NMeL]D-Piperidide; lactam N-8) | 28 ×10⁻⁶ cm/s | 90 µL/min/mg | – | – |
| CC(C)C[C@H]1C(=O)N(C)[C@@H](CC(C)C)C(=O)N[C@H](C(=O)N2CCCCC2)CC(=O)N(C)CCCC(=O)N(C)[C@@H](Cc2ccccc2)C(=O)N[C@@H]([C@@H](C)O)C(=O)N(C)[C@@H](CC(C)C)C(=O)N[C@@H](COC(C)(C)C)C(=O)N1C [DP-686] ([NMeGABA][NMeF]T[NMeL]S(tBu)[NMeL][NMeL]D-Piperidide; lactam N-8) | 36 ×10⁻⁶ cm/s | 227 µL/min/mg | – | – |
| CC(C)C[C@@H]1NC(=O)[C@H](Cc2ccccc2)N(C)C(=O)[C@H]([C@@H](C)O)NC(=O)[C@H](Cc2ccccc2)N(C)C(=O)[C@H](C)N(C)C(=O)[C@H](C)N(C)C(=O)C[C@@H](C(=O)N2CCCCC2)NC(=O)[C@@H]2CCCN2C1=O [DP-687] ([NMeA][NMeA][NMeF]T[NMeF]LPD-Piperidide; lactam N-8) | – | – | 10 ×10⁻⁶ cm/s | 10 µL/min/mg |
| CC(C)C[C@@H]1NC(=O)[C@H](Cc2ccccc2)N(C)C(=O)[C@H]([C@@H](C)O)NC(=O)[C@H](Cc2ccccc2)N(C)C(=O)[C@H](C)N(C)C(=O)[C@H](CC(C)C)N(C)C(=O)C[C@@H](C(=O)N2CCCCC2)NC(=O)[C@@H]2CCCN2C1=O [DP-688] ([NMeL][NMeA][NMeF]T[NMeF]LPD-Piperidide; lactam N-8) | – | – | 17 ×10⁻⁶ cm/s | 23 µL/min/mg |
| CC(C)C[C@H]1C(=O)N(C)[C@@H](Cc2ccccc2)C(=O)N(C)[C@@H](CC(C)C)C(=O)N[C@@H]([C@@H](C)O)C(=O)N(C)CC(=O)N[C@@H](COC(C)(C)C)C(=O)N(C)[C@@H](CC(C)C)C(=O)N[C@H](C(=O)N2CCCCC2)CC(=O)N1C [DP-689] ([NMeL][NMeF][NMeL]T[Sar]S(tBu)[NMeL]D-Piperidide; lactam N-8) | 44 ×10⁻⁶ cm/s | 103 µL/min/mg | – | – |
| CC(C)C[C@@H]1NC(=O)[C@H]([C@@H](C)O)NC(=O)[C@H](CC(C)C)N(C)C(=O)CN(C)C(=O)[C@H](Cc2ccccc2)N(C)C(=O)[C@H](C(C)C)NC(=O)C[C@@H](C(=O)N2CCCCC2)NC(=O)[C@H](CC(C)C)N(C)C1=O [DP-690] (V[NMeF][Sar][NMeL]TL[NMeL]D-Piperidide; lactam N-8) | 33 ×10⁻⁶ cm/s | 217 µL/min/mg | – | – |
| CC(C)C[C@@H]1NC(=O)CN(C)C(=O)[C@H](CC(C)C)N(C)C(=O)[C@H]([C@@H](C)O)NC(=O)[C@H](CC(C)C)N(C)C(=O)[C@H](Cc2ccccc2)N(C)C(=O)[C@H](C(C)C)NC(=O)C[C@@H](C(=O)N2CCCCC2)NC1=O [DP-691] (V[NMeF][NMeL]T[NMeL][Sar]LD-Piperidide; lactam N-8) | 33 ×10⁻⁶ cm/s | 326 µL/min/mg | – | – |
| CC(C)C[C@@H]1NC(=O)C[C@@H](C(=O)N2CCCCC2)NC(=O)[C@H](COC(C)(C)C)NC(=O)[C@H](CC(C)C)N(C)C(=O)CN(C)C(=O)[C@H]([C@@H](C)O)NC(=O)[C@H](CC(C)C)N(C)C(=O)[C@H](Cc2ccccc2)N(C)C1=O [DP-692] (L[NMeF][NMeL]T[Sar][NMeL]S(tBu)D-Piperidide; lactam N-8) | 29 ×10⁻⁶ cm/s | 212 µL/min/mg | – | – |
| CC(C)C[C@H]1C(=O)N(C)[C@@H](CC(C)C)C(=O)N[C@H](C(=O)N2CCCCC2)CC(=O)N[C@@H](C(C)C)C(=O)N(C)[C@@H](Cc2ccccc2)C(=O)N[C@@H]([C@@H](C)O)C(=O)N(C)CC(=O)N[C@@H](COC(C)(C)C)C(=O)N1C [DP-693] (V[NMeF]T[Sar]S(tBu)[NMeL][NMeL]D-Piperidide; lactam N-8) | 35 ×10⁻⁶ cm/s | 246 µL/min/mg | – | – |
| CC(C)C[C@H]1C(=O)N(C)[C@@H](CC(C)C)C(=O)N[C@@H](COC(C)(C)C)C(=O)N[C@H](C(=O)N2CCCCC2)CC(=O)N[C@@H](C(C)C)C(=O)N(C)[C@@H](Cc2ccccc2)C(=O)N(C)CC(=O)N[C@@H]([C@@H](C)O)C(=O)N1C [DP-694] (V[NMeF][Sar]T[NMeL][NMeL]S(tBu)D-Piperidide; lactam N-8) | 33 ×10⁻⁶ cm/s | 170 µL/min/mg | – | – |
| CC(C)C[C@H]1C(=O)N(C)[C@@H](CC(C)C)C(=O)N[C@@H](COC(C)(C)C)C(=O)N[C@H](C(=O)N2CCCCC2)CC(=O)N(C)CCCC(=O)N(C)[C@@H](Cc2ccccc2)C(=O)N[C@@H]([C@@H](C)O)C(=O)N(C)CC(=O)N1C [DP-695] ([NMeGABA][NMeF]T[Sar][NMeL][NMeL]S(tBu)D-Piperidide; lactam N-8) | 15 ×10⁻⁶ cm/s | 47 µL/min/mg | – | – |
| CC(C)C[C@@H]1NC(=O)[C@H]([C@@H](C)O)NC(=O)[C@H](CC(C)C)N(C)C(=O)[C@H](Cc2ccccc2)N(C)C(=O)[C@H](C)N(C)C(=O)C[C@@H](C(=O)N2CCCCC2)NC(=O)[C@H](COC(C)(C)C)NC(=O)[C@H](CC(C)C)N(C)C1=O [DP-696] ([NMeA][NMeF][NMeL]TL[NMeL]S(tBu)D-Piperidide; lactam N-8) | 37 ×10⁻⁶ cm/s | 194 µL/min/mg | – | – |
| CC(C)C[C@H]1C(=O)N[C@H](C(=O)N2CCCCC2)CC(=O)N(C)[C@@H](C)C(=O)N(C)[C@@H](Cc2ccccc2)C(=O)N(C)[C@@H](CC(C)C)C(=O)N[C@@H]([C@@H](C)O)C(=O)N(C)CC(=O)N[C@@H](COC(C)(C)C)C(=O)N1C [DP-697] ([NMeA][NMeF][NMeL]T[Sar]S(tBu)[NMeL]D-Piperidide; lactam N-8) | 35 ×10⁻⁶ cm/s | 87 µL/min/mg | – | – |
| CC(C)C[C@@H]1NC(=O)[C@H](CC(C)C)N(C)C(=O)[C@H](COC(C)(C)C)NC(=O)[C@H](Cc2ccccc2)N(C)C(=O)[C@H](C)N(C)C(=O)C[C@@H](C(=O)N2CCCCC2)NC(=O)[C@H](CC(C)C)N(C)C(=O)[C@H]([C@@H](C)O)NC1=O [DP-698] ([NMeA][NMeF]S(tBu)[NMeL]LT[NMeL]D-Piperidide; lactam N-8) | 31 ×10⁻⁶ cm/s | 142 µL/min/mg | – | – |
| CC(C)C[C@H]1C(=O)N(C)[C@@H](Cc2ccccc2)C(=O)N[C@H](C(=O)N2CCCCC2)CC(=O)N(C)[C@@H](C)C(=O)N[C@@H](C)C(=O)N[C@@H]([C@@H](C)O)C(=O)N(C)[C@@H](CC(C)C)C(=O)N[C@@H](Cc2ccccc2)C(=O)N1C [DP-699] ([NMeA]AT[NMeL]F[NMeL][NMeF]D-Piperidide; lactam N-8) | 29 ×10⁻⁶ cm/s | 81 µL/min/mg | – | – |
| CC(C)C[C@H]1C(=O)N[C@@H]([C@@H](C)O)C(=O)N[C@@H](C)C(=O)N(C)[C@@H](Cc2ccccc2)C(=O)N[C@H](C(=O)N2CCCCC2)CC(=O)N(C)[C@@H](C)C(=O)N(C)[C@@H](CC(C)C)C(=O)N[C@@H](Cc2ccccc2)C(=O)N1C [DP-700] ([NMeA][NMeL]F[NMeL]TA[NMeF]D-Piperidide; lactam N-8) | 49 ×10⁻⁶ cm/s | 398 µL/min/mg | – | – |
| CC(C)C[C@@H]1NC(=O)[C@@H](C(C)C)NC(=O)C[C@@H](C(=O)N2CCCCC2)NC(=O)[C@H](Cc2ccccc2)N(C)C(=O)[C@H](CC(C)C)N(C)C(=O)[C@H](Cc2ccccc2)NC(=O)[C@H](C)N(C)C(=O)[C@H]([C@@H](C)O)NC1=O [DP-701] ([dV]LT[NMeA]F[NMeL][NMeF]D-Piperidide; lactam N-8) | 31 ×10⁻⁶ cm/s | 69 µL/min/mg | – | – |
| CC(C)C[C@@H]1NC(=O)[C@@H](C(C)C)NC(=O)C[C@@H](C(=O)N2CCCCC2)NC(=O)[C@H](Cc2ccccc2)NC(=O)[C@H](CC(C)C)N(C)C(=O)[C@H](Cc2ccccc2)N(C)C(=O)[C@H](C)N(C)C(=O)[C@H]([C@@H](C)O)NC1=O [DP-702] ([dV]LT[NMeA][NMeF][NMeL]FD-Piperidide; lactam N-8) | 25 ×10⁻⁶ cm/s | 123 µL/min/mg | – | – |

From US9409952B2, “Peptide-compound cyclization method” (Chugai Seiyaku Kabushiki Kaisha, priority 2011, dated 2016)
